From US20120101093A1, “SUBSTITUTED IMIDAZO[1,2-A]PYRIDINE DERIVATIVES, PHARMACEUTICAL COMPOSITIONS, AND METHODS OF USE AS BETA-SECRETASE INHIBITORS” (HIGH POINT PHARMACEUTICALS, LLC, priority 2009, published 2012)

How the values were obtained:
BACE-1 enzyme = target: T1, BACE-1 enzyme (Homo sapiens, UniProt P56817); test: BACE Fluorescence Resonance Energy Transfer (FRET) Assay; format: biochemical; details: pH 4-4.5, 30 min pre-incubation, about 1.5 hours reaction
T1 construct: purchased R & D Systems 931AS
T1 sequence (P56817 46-457 limits assumed): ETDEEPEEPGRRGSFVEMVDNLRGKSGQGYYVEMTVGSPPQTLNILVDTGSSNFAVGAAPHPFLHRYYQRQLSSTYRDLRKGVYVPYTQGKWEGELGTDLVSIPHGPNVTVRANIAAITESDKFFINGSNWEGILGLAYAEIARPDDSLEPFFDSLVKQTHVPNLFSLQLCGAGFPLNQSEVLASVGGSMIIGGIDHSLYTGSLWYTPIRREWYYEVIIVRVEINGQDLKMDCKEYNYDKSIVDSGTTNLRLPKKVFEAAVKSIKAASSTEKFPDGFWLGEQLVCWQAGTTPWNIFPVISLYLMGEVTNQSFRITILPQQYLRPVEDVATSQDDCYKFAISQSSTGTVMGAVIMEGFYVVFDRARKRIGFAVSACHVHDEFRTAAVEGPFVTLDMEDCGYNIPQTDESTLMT
Summary of the method: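 BACE-1 enzyme pre-incubated 30 min with compound in 7.5% DMSO in 50 mM sodium acetate pH 4-4.5, 0.01% CHAPS, 0.0125% Triton X-100, 0.006% EDTA. Rhodamine/quencher peptide substrate added; ~1.5 h at room temperature, fluorescence read at 540/585 nm. IC50 or percent inhibition at one concentration.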

[1] = system: Aβ1-40 secreted from HEK293 cells stably expressing wildtype human APP695 protein (HEK-APPwt cells); test: Aβ Cell Based Assay (Aβ1-40 secretion, ELISA); details: Homo sapiens, HEK293, 6 h, 6 hours incubation, reduction of Aβ1-40 secretion
Summary of the method: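 Cells in DMEM with 2% FBS exposed to ten compound concentrations for 6 h at 37 °C. Secreted Aβ1-40 in supernatant quantified by sandwich ELISA (82E1 capture, TMB, OD450). EC50 from percent inhibition, DAPT defining 100% inhibition, non-linear fit.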

SMILES | IC50 (BACE-1 enzyme) | EC50 [1]
O=C(Nc1nc2cc(-c3cccc(C(F)(F)F)c3)ccc2[nH]1)c1cn2c(N3CCOCC3)cccc2n1 [Example 123, 5-Morpholin-4-yl-imidazo[1,2-a]pyridine-2-carboxylic acid [5-(3-trifluoromethyl-phenyl)-1H-benzoimidazol-2-yl]-amide] | 2.11 µM | 1.11 µM
COc1ccc(-c2ccc3[nH]c(NC(=O)c4cn5c(N6CCN(C)CC6)cccc5n4)nc3c2)cc1C(F)(F)F [Example 124, 5-(4-Methyl-piperazin-1-yl)-imidazo[1,2-a]pyridine-2-carboxylic acid [5-(4-methoxy-3-trifluoromethyl-phenyl)-1H-benzoimidazol-2-yl]-amide] | 0.55 µM | 3.13 µM
COc1cc(F)cn2cc(C(=O)Nc3nc4cc(-c5cc(F)cc(Cl)c5)ccc4[nH]3)nc12 [Example 126, 6-Fluoro-8-methoxy-imidazo[1,2-a]pyridine-2-carboxylic acid [5-(3-chloro-5-fluoro-phenyl)-1H-benzoimidazol-2-yl]-amide] | 0.22 µM | 1.58 µM
COc1cc(F)cn2cc(C(=O)Nc3nc4cc(-c5cccc(C(F)(F)F)c5)ccc4[nH]3)nc12 [Example 127, 6-Fluoro-8-methoxy-imidazo[1,2-a]pyridine-2-carboxylic acid [5-(3-trifluoromethyl-phenyl)-1H-benzoimidazol-2-yl]-amide] | 0.45 µM | 1.73 µM
O=C(Nc1nc2cc(-c3cccc(C(F)(F)F)c3)ccc2[nH]1)c1cn2c(CO)cccc2n1 [Example 161, 5-Hydroxymethyl-imidazo[1,2-a]pyridine-2-carboxylic acid [5-(3-trifluoromethyl-phenyl)-1H-benzoimidazol-2-yl]-amide] | 0.52 µM | 2.87 µM
COCCNCc1cccc2nc(C(=O)Nc3nc4cc(-c5cccc(C(F)(F)F)c5)ccc4[nH]3)cn12 [Example 162, 5-[(2-Methoxy-ethylamino)-methyl]-imidazo[1,2-a]pyridine-2-carboxylic acid [5-(3-trifluoromethyl-phenyl)-1H-benzoimidazol-2-yl]-amide] | 0.23 µM | 0.98 µM
CN(C)Cc1cccc2nc(C(=O)Nc3nc4cc(-c5cccc(C(F)(F)F)c5)ccc4[nH]3)cn12 [Example 163, 5-Dimethylaminomethyl-imidazo[1,2-a]pyridine-2-carboxylic acid [5-(3-trifluoromethyl-phenyl)-1H-benzoimidazol-2-yl]-amide] | 0.36 µM | 1.11 µM
O=C(Nc1nc2cc(-c3cccc(C(F)(F)F)c3)ccc2[nH]1)c1cn2c(CN3CCOCC3)cccc2n1 [Example 165, 5-Morpholin-4-ylmethyl-imidazo[1,2-a]pyridine-2-carboxylic acid [5-(3-trifluoromethyl-phenyl)-1H-benzoimidazol-2-yl]-amide] | 0.42 µM | 1.88 µM
O=C(Nc1nc2cc(-c3cccc(C(F)(F)F)c3)ccc2[nH]1)c1cn2c(CN3CCC(O)CC3)cccc2n1 [Example 167, 5-(4-Hydroxy-piperidin-1-ylmethyl)-imidazo[1,2-a]pyridine-2-carboxylic acid [5-(3-trifluoromethyl-phenyl)-1H-benzoimidazol-2-yl]-amide] | 0.77 µM | 1.54 µM
O=C(Nc1nc2cc(-c3cccc(C(F)(F)F)c3)ccc2[nH]1)c1cn2c(CNCCN3CCOCC3)cccc2n1 [Example 169, 5-[(2-Morpholin-4-yl-ethylamino)-methyl]-imidazo[1,2-a]pyridine-2-carboxylic acid [5-(3-trifluoromethyl-phenyl)-1H-benzoimidazol-2-yl]-amide] | 0.42 µM | 5.23 µM
CNCc1cccc2nc(C(=O)Nc3nc4cc(-c5cccc(C(F)(F)F)c5)ccc4[nH]3)cn12 [Example 170, 5-Methylaminomethyl-imidazo[1,2-a]pyridine-2-carboxylic acid [5-(3-trifluoromethyl-phenyl)-1H-benzoimidazol-2-yl]-amide] | 0.47 µM | 2.48 µM
O=C(Nc1nc2cc(-c3cccc(C(F)(F)F)c3)ccc2[nH]1)c1cn2c(CNCCCO)cccc2n1 [Example 171, 5-[(3-Hydroxy-propylamino)-methyl]-imidazo[1,2-a]pyridine-2-carboxylic acid [5-(3-trifluoromethyl-phenyl)-1H-benzoimidazol-2-yl]-amide] | 0.71 µM | 4.26 µM
CC(C)(C)NCc1cccc2nc(C(=O)Nc3nc4cc(-c5cccc(C(F)(F)F)c5)ccc4[nH]3)cn12 [Example 172, 5-(tert-Butylamino-methyl)-imidazo[1,2-a]pyridine-2-carboxylic acid [5-(3-trifluoromethyl-phenyl)-1H-benzoimidazol-2-yl]-amide] | 0.31 µM | 1.92 µM
COCCCNCc1cccc2nc(C(=O)Nc3nc4cc(-c5cccc(C(F)(F)F)c5)ccc4[nH]3)cn12 [Example 174, 5-[(3-Methoxy-propylamino)-methyl]-imidazo[1,2-a]pyridine-2-carboxylic acid [5-(3-trifluoromethyl-phenyl)-1H-benzoimidazol-2-yl]-amide] | 0.93 µM | 4.4 µM
CC(C)CNCc1ccc2nc(C(=O)Nc3nc4cc(-c5cccc(C(F)(F)F)c5)ccc4[nH]3)cn2c1 [Example 176, 6-(Isobutylamino-methyl)-imidazo[1,2-a]pyridine-2-carboxylic acid [5-(3-trifluoromethyl-phenyl)-1H-benzoimidazol-2-yl]-amide] | 0.37 µM | 3.91 µM
O=C(Nc1nc2cc(-c3cccc(C(F)(F)F)c3)ccc2[nH]1)c1cn2cc(CO)ccc2n1 [Example 177, 6-Hydroxymethyl-imidazo[1,2-a]pyridine-2-carboxylic acid [5-(3-trifluoromethyl-phenyl)-1H-benzoimidazol-2-yl]-amide] | 0.3 µM | 1.03 µM
O=C(Nc1nc2cc(-c3cccc(C(F)(F)F)c3)ccc2[nH]1)c1cn2cc(CN3CCCC3)ccc2n1 [Example 179, 6-Pyrrolidin-1-ylmethyl-imidazo[1,2-a]pyridine-2-carboxylic acid [5-(3-trifluoromethyl-phenyl)-1H-benzoimidazol-2-yl]-amide] | 0.55 µM | 4.74 µM
O=C(Nc1nc2cc(-c3cccc(C(F)(F)F)c3)ccc2[nH]1)c1cn2cc(CN3CCOCC3)ccc2n1 [Example 182, 6-Morpholin-4-ylmethyl-imidazo[1,2-a]pyridine-2-carboxylic acid [5-(3-trifluoromethyl-phenyl)-1H-benzoimidazol-2-yl]-amide] | 0.46 µM | 0.54 µM
CC(C)CN(C)Cc1ccc2nc(C(=O)Nc3nc4cc(-c5cccc(C(F)(F)F)c5)ccc4[nH]3)cn2c1 [Example 184, 6-[(Isobutyl-methyl-amino)-methyl]-imidazo[1,2-a]pyridine-2-carboxylic acid [5-(3-trifluoromethyl-phenyl)-1H-benzoimidazol-2-yl]-amide] | 0.83 µM | 4.32 µM
CN(Cc1ccccc1)Cc1ccc2nc(C(=O)Nc3nc4cc(-c5cccc(C(F)(F)F)c5)ccc4[nH]3)cn2c1 [Example 185, 6-[(Benzyl-methyl-amino)-methyl]-imidazo[1,2-a]pyridine-2-carboxylic acid [5-(3-trifluoromethyl-phenyl)-1H-benzoimidazol-2-yl]-amide] | 0.62 µM | 1.93 µM
